Legend:
mdx mouse [1] = assay: Effect of administration on a muscular dystrophy mouse model; assay type: in vivo; conditions: into the stomach, 4 or 400 mg/kg/day for 7 days
Description: The aforementioned compound 2 was studied for its effect of administration on a muscular dystrophy mouse model. An mdx mouse was used as a muscular dystrophy mouse model. The compound 2 was administered forcibly into the stomach of an mdx mouse at a dose of 4 or 400 mg/kg/day for 7 days, and then biochemical and immuno-histochemical analyses were conducted.

mdx mouse [2] = assay: Side effects in mice; assay type: in vivo; conditions: subcutaneous, 4 or 400 mg/kg/day for 14 days
Description: The aforementioned compound 2 was studied for side effects in mice.
The compound 2 was injected subcutaneously to an mdx mouse at a dose of 4 or 400 mg/kg/day for 14 days.

[3] = test system: mouse models for muscular dystrophy; conditions: Patent document 1; cited from earlier work
[4] = test system: patients with Duchenne muscular dystrophy; conditions: Non-patent document 1; cited from earlier work
[5] = test system: airway epithelium of patients with cystic fibrosis; conditions: topical administration to airway epithelium, Non-patent document 2; cited from earlier work

## CC(=O)NC(CC(N)=O)C(=O)O (stereo not drawn) [compound 2]
Mdx mouse [1]
  results compared to positive control group administered with gentamicin: favorable results compared to a positive control group administered with gentamicin
  serum creatine kinase activity: reduced
Mdx mouse [1]; immuno-histochemical analysis
  dystrophin in muscles (e.g. hind limb): accumulated
Mdx mouse [2]
  body weight during the administration period: no decrease
  hearing test that measures auditory brainstem response: no abnormal values
Mdx mouse [2]; total protein, albumin, AST, ALT, ALP, γ-GTP, creatinine, glucose, lipids, electrolytes, bilirubin etc.
  eighteen serological and biochemical tests: no abnormal values

## CN(CC(=O)O)NC(=O)C[C@H](N)C[C@@H](O)CN [negamycin]
[3]
  dystrophin expression: restore a dystrophin expression

## gentamicin
[4]
  dystrophin protein: led to accumulation of dystrophin protein
[5]
  typical electrophysiological abnormalities: could correct
